# Source: publication PMC3948684, “Approaches to Improve the Oral Bioavailability and Effects of Novel Anticancer Drugs Berberine and Betulinic Acid” (PLoS ONE, 2014)
# Experiments:
# [1] = parameters: method as in PMID 17531424; details: single oral dose of 400 mg ref 20; cited from earlier work
# [2] = In vitro drug release of BBR (USP type II paddle); type: physicochemical; details: after 5 h; PBS pH 5.8 with 1% volpo, 37°C
# Protocol: In vitro drug release study was conducted in PBS (pH 5.8) containing 1% volpo. Briefly, 50 mg of free drug or equivalent amount of SD form of BBR and BA were dispersed in 500 ml of release medium and the drug release profile was studied at pH 5.8. Release studies were performed according to the USP type II paddle method, at 37±0.5°C while stirring constantly at 50 rpm. Samples were withdrawn at different time points, centrifuged and drug content in the samples was analyzed by spectrometric method of analysis. The withdrawn samples were replaced by equal volumes of fresh medium maintained at the same temperature. Except replacing the 1% Volpo with 2.5% SLS, similar conditions were maintained for the in vitro drug release studies of BA in free drug and SD forms. The released BA concentrations were measured by established HPLC method.
# VEGF = test: Quantification of VEGF by ELISA; type: in vivo, athymic Nu/nu mice
# Protocol: VEGF levels were estimated in plasma, tumor tissue homogenates by ELISA method. Tumors were homogenized in RIPA lysis buffer (20 mM Tris-HCl pH 7.5, 150 mM NaCl, 1% Triton X-100) containing proteinase inhibitors (Complete Proteinase Inhibitor Cocktail Tablets, Roche, Indianapolis. IN). Tissue debris was pelleted and the resulting supernatant was used in subsequent analysis. Total protein concentration was determined with a BCA protein assay (Pierce, Rockford, IL). VEGF concentrations were determined according to the manufacturer's instructions. A minimum of 3 tumors per group were analyzed in duplicate.
# Bcl-2 = test: Western blot of orthotopic lung tumor lysates; type: in vivo, athymic Nu/nu mice; details: A549 tumors; densitometry
# Protocol: (§1) Western blot analysis was performed to study the expression of Bcl-2, cleaved caspase 3, survivin, cyclin D1, p53, MMP-9, HIF-1α. The detailed procedure was given as Data S1.
# (§2) B) Western blot analysis: western blot analysis was performed to study the expression of Bcl-2, cleaved caspase 3, survivin, cyclin D1, p53, MMP-9, HIF-1α. The detailed procedure was given in supplementary data. Protein was extracted from tumor tissues collected from untreated control and drug treated animals using RIPA lysis buffer (50mM Tris-HCL, pH 8.0, with 150 mM sodium chloride, 1.0% Igepal CA-630 (NP-40), 0.5% sodium deoxychlorate, and 0.1% sodium dodecyl sulfate) with protease inhibitor and 500 mM phenylmethylsulfonyl fluoride. Protein concentration was measured using BCA Protein Assay Reagent Kit (PIERCE, Rockford, IL). Equal amounts of supernatant protein (50 μg) was denatured by boiling for 5 min in SDS sample buffer, separated by 10% SDS-PAGE, transferred to nitrocellulose membranes for immunoblotting. Membranes were blocked with 5% skim milk in Tris-buffered saline with Tween 20 [10mM Tris-HCL (pH 7.6), 150 mM Nacl, and 0.5% Tween 20] and probed with antibodies against Bcl-2 (1:1000), cleaved caspase 3 (1:500), survivin (1:1000), cyclin D1(1:1000), p53 (1:1000), MMP-9 (1:1000), HIF-1α (1:1000) and β-actin (1:1000). Horseradish peroxidase-conjugated secondary antibodies (Santa Cruz Biotechnology, Santa Cruz, CA) were used. Proteins were visualized using enhanced chemiluminescent solution (Pierce, Rockford, IL) and exposed to Kodak X-OMAT AR autoradiography film (Eastman Kodak, Rochester, NY).
# HIF-1α = test: Western blot of orthotopic lung tumor lysates; type: in vivo, athymic Nu/nu mice; details: A549 tumors
# Protocol: as §1, §2
# survivin = test: Western blot of orthotopic lung tumor lysates; type: in vivo, athymic Nu/nu mice; details: A549 tumors; densitometry
# Protocol: as §1, §2
# cyclin D1 = test: Western blot of orthotopic lung tumor lysates; type: in vivo, athymic Nu/nu mice; details: A549 tumors; densitometry
# Protocol: as §1, §2
# [3] = Toxicity on chronic administration (body weights, H&E histopathology); details: 100 mg/kg for 3 weeks
# Protocol: A549 cells were grown in F12K Medium containing 10% FBS and standard antibiotic mix at 5% CO2 and 37°C. For orthotopic lung tumor model, mice were anesthetized with Isoflurane and a 5 mm skin incision was made to the left chest, 5 mm below the scapula. Hamilton syringes (1 ml) with 28-gauge hypodermic needles were used to inject the cell inoculums through the sixth intercostal space into the left lung. The needle was quickly advanced to a depth of 3 mm and quickly removed after the injection of the A549 cells (2 million/mouse) suspended in 100 µL PBS (pH 7.4) into the lung parenchyma. For metastatic lung tumor models H1650 cells (2 million in 100 µL PBS) were intravenously administered to mice via tail vein. […] Wounds from the incisions were closed with surgical skin clips. […] Drug treatment was started 2 weeks after the tumor cell implantation. BBR free drug or SD formulation was given orally at the dose of 100 mg/kg daily for 3 weeks. […] Body weights were monitored throughout the study. Animal survival rates were recorded during the study. The lung weights and tumor volumes were used for assessment of therapeutic activity of the treatments. After sacrificing the animals lung weights and tumor nodules were recorded in metastatic tumor models.
# Orthotopic lung tumors and mice small intestine segments (ileum) were processed for normal histopathological procedures and 5–10 µm sections were made. After deparaffinization and rehydration, sections were stained with Hematoxylin and Eosin for normal histological evaluation. Similarly, small intestine segments were processed and stained with H&E and visualized under normal microscope.
# CD31 = test: IHC analysis of orthotopic lung tumor sections (microvessel density); type: in vivo, athymic Nu/nu mice; details: A549 tumors; CD31 positive cells
# Text: Formalin fixed tumors were processed for automatic histopathological procedures. The detailed procedure was provided in Data S1 [30].
# C) IHC for cleaved caspase 3 and CD31: Formalin fixed tumors were processed for automatic histopathological procedures. The detailed procedure was provided in supplmmentary data (Supple). Tissue sections were dehydrated by immersing in increasing concentrations of alcohol and embedded in paraffin. Paraffin embedded specimens were cut into thin sections (4-5 µm). Tissue sections (4–5 μm thick) were mounted on poly-L-lysine–coated slides and sections were deparaffinized with xylene and rehydration through graded concentrations of alcohol, then incubated with 3% […] for 20 min to block endogenous peroxidase activity. Antigen retrieval for cleaved caspase 3 and CD31 staining was carried out for 10 min in 0.01 M sodium citrate buffer (pH 6), heated at 95°C in a steam bath followed by cooling for 30 min. Endogenous peroxidase was blocked by 3% hydrogen peroxide in PBS for 10 min. The slides were washed with PBS and incubated for 1h at room temperature with a protein blocking solution. […] Numbers of positive cells per filed was quantified by counting 10 different fields from each section. Based on the CD31 positive cells, microvessel density (MVD) was calculated (30).
structure (smiles),measurement,setting,value
"COc1ccc2cc3[n+](cc2c1OC)CCc1cc2c(cc1-3)OCO2.[Cl-] [BBR free drug, 5,6-dihydro-9,10-dimethoxy-benzo[g]-1,3-benzodioxolo[5,6-a]quinolizinium, chloride]",Cmax in human plasma,[1],0.4 ng/mL
same,percent of BBR released,[2],Approximately 100%
same,VEGF levels in tumor lysates,VEGF; untreated control 284.71±42.84,137.59±20.84 pg/mg protein
same,VEGF levels in serum,VEGF; untreated control 597.90±54.03,315.41 ± 44.06 pg/mL
same,beta actin relative Bcl-2 expression reduced compared to untreated control,Bcl-2,2.79 fold
same,HIF-1α expression,HIF-1α,significantly down regulated
same,survivin expression down regulated compared to control,survivin,2.03 fold
same,cyclin D1 relative expression reduced compared to untreated control,cyclin D1,1.02 fold
same,H&E histopathology of small intestine (ileum),[3],No visible toxicity
same,body weight changes during treatment,[3],no significant change
same,signs of toxicity on chronic administration,[3],did not result in any toxicity
same,microvessel density (MVD) reduced compared to untreated control tumors,CD31,1.44 fold
